From patent US20090054403A1, “Treatment of Post-Traumatic Stress Disorder” (priority 2007, published 2009) come the findings set out here.

In series [1] the test system is acoustic startle reactivity. The experiment in a line: Acoustic startle reactivity after acute dosing. The note with it: nepicastat 3-100 mg/kg, SKF-102698 100 mg/kg, clonidine 40 μg/kg. Type of series: in vivo, Sprague Dawley rats. As for the experimental part:
A piezoelectric accelerometer transforms the subject's movement into an arbitrary voltage on a scale of 0 to 4095. Prior to drug administration, each of seventy-two rats was placed in the startle apparatus, and after a 5 minute adaption period they were presented with an acoustic noise burst every 20 seconds for 15 minutes (45 startles total). The average startle was calculated for each rat by taking the mean of startle number 11 through 45 (the first ten startles will be disregarded). Sixty-four of these rats were then placed in one of eight treatment groups such that each group had similar mean startle values. The eight treatment groups were as follows: […] Each day after this testing procedure, eight rats (one rat from each of the eight treatment groups) was injected with their assigned drug treatment and immediately placed individually in a motor activity box. The rats motor activity was monitored for four hours. Next, the rats were placed in a transfer cage for fifteen minutes. […] To evaluate startle reactivity, for the 200 milliseconds immediately succeeding each startle the average force exerted by each startled rat over the entire 200 milliseconds, and the maximum force, were measured. […] The startle responses were analyzed using analysis of covariance. […] Therefore, the startle responses were analyzed by time. […]

In series [2] the test system is acoustic startle reactivity. Kind of series: Acoustic startle reactivity on day ten of chronic dosing. The conditions noted are these: rat, in vivo, po. As for the experimental part:
(§1) The effects of chronic dosing of nepicastat were examined. Between three and thirteen days prior to the first dosing day the rats were placed inside the startle apparatus and after a five minute acclimation period they were presented with a 118 dB noise burst on average once a minute (a variable inter-trial interval ranging between 30 and 90 seconds will be used) for 20 minutes. The startle responses were measured and a mean for the last twenty startle response was calculated for each rat.
(§2) Acoustic startle reactivity (a series of muscle contractions elicited by an intense burst of noise with a rapid onset), and pre-pulse inhibition (sensorimotor gating measured by analyzing any decrease in startle reactivity which occurs when a startling stimulus is immediately preceded by a non startling stimulus) were both measured in eight SR-Lab (San Diego Instruments, San Diego, Calif.) test stations. The rats were placed individually in a Plexiglas cylinder (10 cm diameter) which was housed in a ventilated sound-attenuating enclosure. Acoustic noise bursts (a broad band noise with a rise time and fall time of 1 msec) were presented via a speaker mounted 30 cm above the animal. Also, these speakers produced a 68 dB level of background noise throughout all test sessions. […] A decibel meter was used to calibrate the speakers in each of the eight test station to ±1% of the mean. Additionally, a SR-Lab calibrating instrument was used to calibrate each of the eight startle detection apparatuses to ±2% of the mean. Startle reactivity and pre-pulse inhibition tests were run concurrently immediately alter the motor activity test (about 4 hours and 40 minutes after the morning daily injection of nepicastat, and SKF-102698, and 10 minutes after a supplemental administration of clonidine and d-amphetamine on dosing day ten).

The next series has as its system pre-pulse inhibition. Kind of series: Pre-pulse inhibition of acoustic startle on day ten of chronic dosing. As for the experimental part:
as §1, §2

For a further series, the system named is locomotor activity. Kind of series: Locomotor activity after acute dosing. It is filed as in vivo, Sprague Dawley rats. The conditions noted are these: 4 h; nepicastat 3-100 mg/kg, SKF-102698 100 mg/kg, clonidine 40 μg/kg. From the text:
Changes in these behaviors may therefore reflect activity of these compounds in the central nervous system. […] Rats were housed under a normal light/dark cycle with lights on between 0900 Hrs. and 2100 Hrs. Animals were housed in pairs in standard metal wire cages, and food and water were allowed ad libitum. The locomotor activity boxes consisted of a Plexiglas® box measuring 18″×18″ by 12″ high. Surrounding the Plexiglas® boxes were Omnitech Digiscan Monitors (model # RXXCM 16) which consisted of a one inch ban of photobeams and photosensors numbering 32 per box. The number of photobeam breaks were analyzed by an Omnitech Digiscan Analyzer (model # DCM-8). […] Prior to drug administration, each of seventy-two rats was placed in the startle apparatus, and after a 5 minute adaption period they were presented with an acoustic noise burst every 20 seconds for 15 minutes (45 startles total). The average startle was calculated for each rat by taking the mean of startle number 11 through 45 (the first ten startles will be disregarded). Sixty-four of these rats were then placed in one of eight treatment groups such that each group had similar mean startle values. The eight treatment groups were as follows: […] Each day after this testing procedure, eight rats (one rat from each of the eight treatment groups) was injected with their assigned drug treatment and immediately placed individually in a motor activity box. The rats motor activity was monitored for four hours. Next, the rats were placed in a transfer cage for fifteen minutes. At the beginning of this fifteen minutes the rat that has been assigned the clonidine treatment will receive another injection of 40 μg/kg. […] To evaluate motor activity, horizontal activity (number of photobeams broken), number of movements, and rest time were measured. Each parameter was analyzed separately. At each time interval (or called sample), a two-way analysis of variance (ANOVA) was performed using the ranked data (nonparametric technique) to test for the treatment effect blocked by day.

The test system of series [3] is spontaneous motor activity. Kind of series: Spontaneous motor activity on day ten of chronic dosing. The conditions noted are these: day ten of b.i.d. oral dosing, 1 hour. How it is done:
as §1
The animals were tested in an enclosed room with a white noise generator running. Motor activity tests were conducted immediately after the body core temperature reading taken on dosing day ten (about 3 hours and 35 minutes after the morning daily dose of nepicastat, and SKF-102698, and 20 minutes prior to the daily administration of clonidine and d-amphetamine on dosing day ten). Motor activity tests were run for one hour. A diagnostic program was run on each of the motor activity chambers prior to each test session to assure that the photo beams and light sensors were operating properly. […] D-amphetamine was used as the positive control for this assay.
Each rats spontaneous locomotion was obtained by calculating the total number of photobeams that the subject broke during the testing session.
Spontaneous motor activity was measured for each animal every 15 min for 1 hour. Each time block (every 15 min) was analyzed separately. Kruskal-Wallis test (nonparametric technique) was performed to test for the difference between treatment groups. If the overall significant difference […], Bonferroni's adjustment for multiple comparisons is then made.

The test system of another series is body core temperature. Kind of series: Body core temperature during 10 day chronic dosing. The note with it: b.i.d. oral: nepicastat 5, 15, 50 mg/kg; SKF-102698 50 mg/kg; clonidine 20 ug/kg; d-amphetamine 2 mg/kg; days 1, 5, 10. How it is done: as §1
Rat body core temperatures were obtained by inserting the rectal probe 2 cm into the colon of each rat. Each rat's body core temperature was measured three times and the average of the three reading was calculated. Body core temperature readings were obtained immediately prior to the ten day chronic dosing schedule (to obtain a baseline), and three and half hour after the morning daily dose of nepicastat, and SKF-102698, and 15 minutes prior to the daily administration of clonidine and d-amphetamine, on dosing days one, five and ten. […] Both clonidine (an alpha2 agonist), and d-amphetamine (a dopamine releaser) were used as the positive controls for this assay.
An overall one-way ANOVA with a main effect for treatment was performed at each time on the change from baseline for each animal. Subsequent t-tests were performed for each comparison of interest.

Series [4] in a line: Change of body weight during 10 day chronic dosing. The conditions noted are these: 10 days b.i.d. oral dosing. How it is done: as §1
The change from pre-dose in body weights was calculated for each animal for the analysis. A repeated measures two-way ANOVA was used to test for the overall effects of treatment, time and treatment by time interaction. One-way ANOVAS were then performed to test the treatment effect at each day.

In the case of `Clc1cccc(Cl)c1N=C1NCCN1` [clonidine], the “maximum and average startle response vs vehicle” value in series [1] is reported as “statistically significantly lower”. Further, in series [2], the “acoustic startle reactivity vs vehicle” value is given as “significantly reduced”. In addition, the “percent prepulse inhibition vs vehicle” value in the series on pre-pulse inhibition (rat, in vivo, po) was “just significantly higher percent prepulse inhibition”. Besides, in the series with locomotor activity, the “horizontal activity vs vehicle” value was “significantly more horizontal activities at 2 and 2.5 hours”; the “number of movements vs vehicle” value is recorded as “significantly more movements at 2 hours”; the “rest time vs vehicle” value is “significantly less rest time at 2 hours”.
Consider `C[C@H](N)Cc1ccccc1` [d-amphetamine], for which the “spontaneous motor (locomotor) activity vs vehicle” value in series [3] is given as “significantly higher locomotor activity”. The body core temperature result in the series on body core temperature is given as “significantly increasing body core temperature on day one”. For the same molecule, the “change in body weight from pre-dose vs vehicle” value in series [4] is listed as “significantly smaller change in body weight”. The “percent prepulse inhibition vs vehicle” value in the series on pre-pulse inhibition (day ten of b.i.d. oral dosing) is “Neither d-amphetamine nor SKF 102698 was significantly different”.
